Reference: US11034650B2, “Compounds useful for treating a Mannheimia haemolytica or Histophilus somni infection” (Intervet Inc., priority 2016, dated 2021)
Values after ≈ are worked out from the molar mass of the structure shown.

Columns and labels:
Format in all cases: cell-based
[1] = tested on: Mannheimia haemolytica MH 6357 (M7/2, reference strain, cattle infection strain); test: MIC, broth-microdilution (CLSI VET01-A4), strain MH 6357; details: Mannheimia haemolytica strain MH 6357, broth-microdilution; unit assumed
In short: (§1)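 Doubling dilution series in trays; visual read, MIC = lowest conc. with no visible turbidity; interpretation per CLSI VET01-S3.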

[2] = tested on: Mannheimia haemolytica MH 6374 (ATCC 33396, reference strain); test: MIC, broth-microdilution (CLSI VET01-A4), strain MH 6374; details: Mannheimia haemolytica strain MH 6374, broth-microdilution; unit assumed
In short: as §1

[3] = tested on: Mannheimia haemolytica MH 12587 (1071, BRD field isolate, macrolide-resistance: erm+, E+); test: MIC, broth-microdilution (CLSI VET01-A4), strain MH 12587; details: Mannheimia haemolytica strain MH 12587, broth-microdilution; unit assumed
In short: as §1

[4] = tested on: Pasteurella multocida PM 12080 (IV102277-0093, BRD field isolate); test: MIC, broth-microdilution (CLSI VET01-A4), strain PM 12080; details: Pasteurella multocida strain PM 12080, broth-microdilution; unit assumed
In short: as §1

[5] = tested on: Mannheimia haemolytica MH 13093 (XB0472-6014.1, BRD field isolate); test: MIC, broth-microdilution (CLSI VET01-A4), strain MH 13093; details: Mannheimia haemolytica strain MH 13093, broth-microdilution; unit assumed
In short: as §1

[6] = tested on: Mannheimia haemolytica MH 10720 (154, BRD field isolate); test: MIC, broth-microdilution (CLSI VET01-A4), strain MH 10720; details: Mannheimia haemolytica strain MH 10720, broth-microdilution; unit assumed
In short: as §1

[7] = tested on: Pasteurella multocida PM 6267 (P 2225 (L386), reference strain, mouse infection strain); test: MIC, broth-microdilution (CLSI VET01-A4), strain PM 6267; details: Pasteurella multocida strain PM 6267, broth-microdilution; unit assumed
In short: as §1

[8] = tested on: Pasteurella multocida PM 6391 (ATCC 43137, reference strain); test: MIC, broth-microdilution (CLSI VET01-A4), strain PM 6391; details: Pasteurella multocida strain PM 6391, broth-microdilution; unit assumed
In short: as §1

[9] = tested on: Pasteurella multocida PM 10775 (080130003051, BRD field isolate); test: MIC, broth-microdilution (CLSI VET01-A4), strain PM 10775; details: Pasteurella multocida strain PM 10775, broth-microdilution; unit assumed
In short: as §1

[10] = tested on: Mannheimia haemolytica MH 13065 (XB0446-6003.9, BRD field isolate); test: MIC, broth-microdilution (CLSI VET01-A4), strain MH 13065; details: Mannheimia haemolytica strain MH 13065, broth-microdilution; unit assumed
In short: as §1

Structure (SMILES) | MIC MH 6357 [1] [µg/mL] | MIC MH 6374 [2] [µg/mL] | MIC MH 12587 [3] [µg/mL] | MIC PM 12080 [4] [µg/mL] | MIC MH 13093 [5] [µg/mL] | MIC MH 10720 [6] [µg/mL] | MIC PM 6267 [7] [µg/mL] | MIC PM 6391 [8] [µg/mL] | MIC PM 10775 [9] [µg/mL] | MIC MH 13065 [10] [µg/mL]
O=C(N[C@@H](CO)C(=O)NO)c1ccc(C#Cc2ccc(CNCc3nccs3)cc2)cc1 [Compound 213] | 1.6 (≈ 3.55 µM) | 1.6 (≈ 3.55 µM) | 3.1 (≈ 6.88 µM) | 0.2 (≈ 0.444 µM) | 3.1 (≈ 6.88 µM) | 0.8 (≈ 1.78 µM) | ≤ 0.1 | 0.4 (≈ 0.888 µM) | ≤ 0.1 | 1.6 (≈ 3.55 µM)
Cc1ccc(CNCc2ccc(C#Cc3ccc(C(=O)NC(C(=O)NO)C(C)(C)[N+](=O)[O-])cc3)cc2)cc1 (centres unmarked) [Compound 283] | 3.1 (≈ 6.02 µM) | 3.1 (≈ 6.02 µM) | 6.3 (≈ 12.2 µM) | 0.8 (≈ 1.55 µM) | 3.1 (≈ 6.02 µM) | 0.2 (≈ 0.389 µM) | 3.1 (≈ 6.02 µM) | 1.6 (≈ 3.11 µM) | 0.2 (≈ 0.389 µM) | 1.6 (≈ 3.11 µM)
CC(C)(O)[C@H](NC(=O)c1ccc(C#Cc2ccc(CNCc3ccncc3)nc2)cc1)C(=O)NO [Compound 329] | 0.8 (≈ 1.69 µM) | 1.6 (≈ 3.38 µM) | 3.1 (≈ 6.55 µM) | 0.4 (≈ 0.845 µM) | 1.6 (≈ 3.38 µM) | ≤ 0.1 | 0.8 (≈ 1.69 µM) | 0.4 (≈ 0.845 µM) | ≤ 0.1 | 0.8 (≈ 1.69 µM)
O=C(N[C@@H](CO)C(=O)NO)c1ccc(C#Cc2ccc(CNCc3ccnc(Cl)c3)cc2)cc1 [Compound 214] | 1.6 (≈ 3.34 µM) | 1.6 (≈ 3.34 µM) | 6.3 (≈ 13.2 µM) | 0.4 (≈ 0.835 µM) | 3.1 (≈ 6.47 µM) | 0.8 (≈ 1.67 µM) | 0.2 (≈ 0.418 µM) | 0.4 (≈ 0.835 µM) | ≤ 0.1 | 3.1 (≈ 6.47 µM)
CSC(C)(C)[C@H](NC(=O)c1ccc(C#Cc2ccc(CNCc3ccccn3)s2)cc1)C(=O)NO [Compound 307] | 0.8 (≈ 1.57 µM) | 0.8 (≈ 1.57 µM) | 1.6 (≈ 3.15 µM) | 0.4 (≈ 0.786 µM) | 1.6 (≈ 3.15 µM) | ≤ 0.1 | 0.8 (≈ 1.57 µM) | 0.4 (≈ 0.786 µM) | ≤ 0.1 | 0.8 (≈ 1.57 µM)
CSC(C)(C)C(NC(=O)c1ccc(C#Cc2ccc(CN3CCOCC3)nc2)cc1)C(=O)NO (centres unmarked) [Compound 338] | 3.1 (≈ 6.42 µM) | 6.3 (≈ 13.1 µM) | 6.3 (≈ 13.1 µM) | 0.4 (≈ 0.829 µM) | 6.3 (≈ 13.1 µM) | 0.8 (≈ 1.66 µM) | 3.1 (≈ 6.42 µM) | 0.8 (≈ 1.66 µM) | ≤ 0.1 | 3.1 (≈ 6.42 µM)
CSC(C)(C)[C@H](NC(=O)c1ccc(C#Cc2ccc(CN3CCCC3)cc2)cc1)C(=O)NO [Compound 242] | 6.3 (≈ 13.5 µM) | 6.3 (≈ 13.5 µM) | 6.3 (≈ 13.5 µM) | 0.8 (≈ 1.72 µM) | 3.1 (≈ 6.66 µM) | 0.8 (≈ 1.72 µM) | 0.4 (≈ 0.859 µM) | 1.6 (≈ 3.44 µM) | 0.2 (≈ 0.43 µM) | 3.1 (≈ 6.66 µM)
CC(C)([C@H](NC(=O)c1ccc(C#Cc2ccc(CNC3CCCC3)cc2)cc1)C(=O)NO)S(C)(=O)=O [Compound 264] | 12.5 (≈ 24.4 µM) | 12.5 (≈ 24.4 µM) | 12.5 (≈ 24.4 µM) | 0.4 (≈ 0.782 µM) | 6.3 (≈ 12.3 µM) | 1.6 (≈ 3.13 µM) | 0.2 (≈ 0.391 µM) | 0.8 (≈ 1.56 µM) | ≤ 0.1 | 6.3 (≈ 12.3 µM)
CN1CCN(Cc2ccc(C#Cc3ccc(C(=O)N[C@@H](CO)C(=O)NO)cc3)cc2)CC1 [Compound 146] | 6.3 (≈ 14.4 µM) | 25 (≈ 57.3 µM) | 25 (≈ 57.3 µM) | ≤ 0.1 | 25 (≈ 57.3 µM) | 1.6 (≈ 3.67 µM) | 0.8 (≈ 1.83 µM) | 1.6 (≈ 3.67 µM) | ≤ 0.1 | 12.5 (≈ 28.6 µM)
COc1ccc(CNCc2ccc(C#Cc3ccc(C(=O)N[C@H](C(=O)NO)C(C)(C)SC)cc3)cc2)cc1 [Compound 240] | 1.6 (≈ 3.01 µM) | 1.6 (≈ 3.01 µM) | 1.6 (≈ 3.01 µM) | 0.4 (≈ 0.752 µM) | 1.6 (≈ 3.01 µM) | 0.4 (≈ 0.752 µM) | 0.2 (≈ 0.376 µM) | 0.8 (≈ 1.5 µM) | 0.2 (≈ 0.376 µM) | 1.6 (≈ 3.01 µM)
CC(=O)C(NC(=O)c1ccc(C#Cc2ccc(CNC3CCC3)cc2)cc1)C(=O)NO (centres unmarked) [Compound 404] | 12.5 (≈ 29.8 µM) | 12.5 (≈ 29.8 µM) | 3.1 (≈ 7.39 µM) | 1.6 (≈ 3.81 µM) | 50 (≈ 119 µM) | 6.3 (≈ 15 µM) | 25 (≈ 59.6 µM) | 0.4 (≈ 0.954 µM) | 3.1 (≈ 7.39 µM) | 25 (≈ 59.6 µM)
